Where two headings read alike, the source gives them in different places. Marks after values point to notes of the source that are not given here.
How the values were obtained:
[1] = system: QR in murine hepatoma Hepa 1c1c7 cells; settings: literature value, See Zhang (2), cited from earlier work
[2] = system: QR in murine hepatoma Hepa 1c1c7 cells; assay: Induction of QR (quinone reductase, phase II enzyme) activity in Hepa 1c1c7 cells; type: cell-based; parameters: induction of QR (fold): unit of the concentration uncertain; settings: for CD: pure compound
Protocol: Extracts from the freeze-dried material were assessed for their induction activity in murine hepatoma Hepa 1c1c7 cells. Approximately 0.1 g of milled freeze-dried material was moistened by addition of water (2 ml), homogenised and left at room temperature for 1 hr with occasional mixing. Hot 70% (v/v) methanol (3 ml) was added and mixed thoroughly prior to incubation for 15 min at +70° C. The homogenates were cooled to room temperature and centrifuged for 5 min at 3000 r.p.m. Supernatants were removed and the volume decreased in a vacuum centrifuge to approximately one fifth of the initial volume. The resulting concentrates were filtered through sterile non-pyrogenic filters ([…]) and stored at −70° C. prior to testing. The concentrations of each extract were expressed as dry weight of original material to each ml of culture medium.
Induction was measured according to published methods (Tawfiq, N., Heaney, R. K., Plumb, J. A., Fenwick, G. R., Musk, S. R. R., & Williamson, G. (1995) Carcinogenesis 16, 1191-1194., Prochaska, H. J., & Santamaria, A. B. (1988) Anal. Biochem. 169, 328-336., Williamson, G., Plumb, G. W., Uda, Y., Price, K. R., & Rhodes, M. J. C. (1996) Carcinogenesis 17, 2385-2387.) with the following modifications. Each sample was analysed at eight concentrations using four replicates for each concentration. b-Napthoflavone was used as a positive control at a concentration of 0.2 mM. […] Each cultivar/hybrid was extracted on three occasions and analysed separately.

[3] = assuming 100% conversion of glucosinolate to isothiocyanate, from plant extracts

C[S+]([O-])CCCN=C=S (stereo not drawn) [3-methylsulfinylpropyl isothiocyanate]
CD value for synthetic isothiocyanate [1]: 2.4 µM | apparent CD value [2, 3]: 0.5 mM

CSCCCN=C=S [3-methylthiopropyl isothiocyanate]
CD value for synthetic isothiocyanate [1]: 3.5 µM | apparent CD value [2, 3]: 1.6 mM

C[S+]([O-])CCCCN=C=S (stereo not drawn) [Synthetic sulforaphane, 4-methylsulfinylbutyl isothiocyanate]
CD value for synthetic isothiocyanate [1]: 0.4-0.8§ μM | CD value for synthetic isothiocyanate ([1]; listed as 4-methylsulfinylbutyl): 0.4 to 0.8 µM | induction of QR (fold) ([2]; at 1.6 (unit uncertain)): three-fold | ability to induce QR activity (in words) ([2]; extracts or compound, cultivar extracts 0.001 mg/ml to 0.125 mg/ml): potent inducer | CD [2]: 0.4 mM | apparent CD value ([2]; synthetic compound, positive control): 0.0003 mM

O=c1cc(-c2ccccc2)oc2ccc3ccccc3c12 [b-Napthoflavone]
induction of QR (fold) ([2]; positive control at 0.2 (unit uncertain)): three-fold | CD [2]: 0.02 mM
